According to a melting point compilation (Tetko et al.; mined from patent text by program, amines drawn as free bases though some values may be those of a salt):

For COc1ccc(C[C@H]2C3=C(CCCC3)CCN2C(C)=O)cc1, the melting point was 80 to 81.5 °C. With CCOC(=O)c1nc(-c2ccc(Cl)cc2Cl)c(-c2ccc(Br)cc2)s1 the melting point was 129 to 130 °C. CC(=O)CNC(=O)Cc1ccccc1 gave a melting point of 126 °C. Cc1cnc(Cn2ncc(-c3ccc(S(C)(=O)=O)cc3)c(-c3ccc(F)cc3)c2=O)s1 gave a melting point of 114 to 116 °C. Molecule CN(C)c1ncc2cc(-c3c(Cl)cccc3Cl)c(=O)n(C)c2n1 has a melting point of 256 to 258 °C. With Cc1nnc(SCc2ccccc2)s1 the melting point was 60 to 63 °C. NC(=O)c1cccc(CSCCNC(=O)c2c(Cl)cccc2Cl)c1 showed a melting point of 148 to 150 °C. With CCOC(=O)c1ccc(N2CCN(C(=O)C=Cc3cc(C(C)(C)C)c(O)c(C(C)(C)C)c3)CC2)cc1 the melting point was 147 to 150 °C. CN(C)c1nc2ncnc(NCc3ccco3)c2[nH]1 showed a melting point of 245 to 246 °C. With CCCCCCCCc1ccc2nc(-c3ccc(COC(CCCCCC)C(F)(F)F)cc3)sc2c1 (stereo not given) the melting point was 37.2 °C. Work on CC(=S)NCC1CN(c2ccc(-c3csc(Cn4cncn4)n3)c(F)c2)C(=O)O1 (stereo not given) yielded a melting point of 82 to 84 °C. Work on CCC(=O)c1c(C)c(NC(=O)CC(C)(C)C)c(C)c2c1OCC2c1ccc(C(C)C)cc1 (stereo not given) yielded a melting point of 163 to 164 °C. O=C1NCCCC1Cc1ccccc1 (stereo not given) gave a melting point of 120 to 123 °C. For COc1ccc2cc3c(Cl)nn(CC(C)N(C)C)c3nc2c1 (stereo not given), the melting point was 78 to 79 °C. Molecule Cc1ccc(N2CCN(c3c(C)c(O)c4c(c3C)CC(C)(C)O4)CC2)cc1 has a melting point of 185 to 189 °C. Work on CNC(=O)NS(=O)(=O)c1cc(CCNC(=O)/C=C/c2cccs2)ccc1OCCOC yielded a melting point of 99 °C. For Cc1nn(C)c(F)c1C(=O)Nc1cccc2c1CCC2(C)C, the melting point was 138 °C. Molecule Fc1ccccc1-c1nc2cnccc2o1 has a melting point of 110 to 111 °C. For CCS(=O)(=O)N1CCN(CCCCCCNc2cc(OC)cc3c(C)ccnc23)CC1, the melting point was 72 to 74 °C. Work on COc1ccc(OCC2CO2)c(C(=O)Nc2cccc3[nH]ccc23)c1 (stereo not given) yielded a melting point of 122 °C. Nc1ccc2c(c1)S(=O)(=O)c1ccccc1-2 gave a melting point of 261 to 264 °C. Molecule CSc1c(CC(C)(C)C(=O)O)n(Cc2ccc(Cl)cc2)c2ccc(F)cc12 has a melting point of 161 to 163 °C. In the case of Cc1nnc2n1-c1sc(C#CCCN3C(=O)c4cccc5cccc(c45)C3=O)cc1C(c1ccccc1Cl)=NC2, the melting point is reported as 175 to 179 °C. With CCCCC1CCCc2oc(C(=N)N)cc21 (stereo not given) the melting point was 243 to 245 °C. Molecule COc1ccc(Cl)cc1-c1cccc2c1OC(CN)C2 (stereo not given) has a melting point of 149 to 152 °C. Work on COC(=O)NNC(=S)CC(C)(C)C yielded a melting point of 72.5 to 73 °C. With CCc1cc(C(C)=O)c(O)cc1OCCCCCN the melting point was 75 to 76 °C. CN=Cc1c(C(=O)OC)[nH]c2c(C)ccc(C)c12 gave a melting point of 261 to 262 °C. CC(=O)N1C(C)(C)CC(NC(=O)c2ccc(Cl)c(N)c2)CC1(C)C gave a melting point of 232 to 234 °C. In the case of CSC(=C[N+](=O)[O-])NCCSCc1ccc(CN(C)C)o1, the melting point is reported as 71 °C. Work on COC(=O)CN=C(Cc1ccccc1)N1CC2C(=O)CCC(c3ccccc3)(c3ccccc3)C2C1 (stereo not given) yielded a melting point of 147 °C. Work on CCOCCOc1ccc(-c2ccc3c(c2)C=C(C(=O)OC)CCN3)cc1 yielded a melting point of 102 to 108 °C. CCCC(C(=O)O)C1(c2ccccc2)CC(O)=C(Sc2ccccc2C(C)C)C(=O)O1 (stereo not given) showed a melting point of 145 to 146 °C. Molecule CC1(c2ccc(Br)cc2)Cc2cc(OCC(=O)O)c(Cl)c(Cl)c2C1=O (stereo not given) has a melting point of 171 to 172 °C. COc1cccc(S)c1S(=O)(=O)NC(C)(C)C showed a melting point of 210 °C. With CCCc1cc(C=Cc2ccc3ccccc3n2)cc(OCC(=O)O)c1 the melting point was 97 to 98 °C. Molecule CNC(=S)NCCCSc1ncc[nH]1 has a melting point of 139 to 141 °C. Molecule CN(Cc1ccccc1)Cc1c(-c2ccc([N+](=O)[O-])cc2)sc2c1c(=O)c(C(=O)c1ccccc1)cn2Cc1c(F)cccc1F has a melting point of 197 to 199 °C. For CNCc1ccc(C2CCN(c3cc4c(cc3F)c(=O)c(C(=O)O)cn4C3CC3)C2)cc1 (stereo not given), the melting point was 235 to 237 °C. CCCCc1oc2ccc([N+](=O)[O-])cc2c1C(=O)c1ccc(OCCCCCN(CCCC)CCCC)cc1 gave a melting point of 107 °C. COc1ccc2cccnc2c1N showed a melting point of 114 to 115 °C. Work on CC(=O)Oc1c(C2CCN(CCCCNC(=O)c3ccc(NC(=O)c4ccc(Cl)cc4)cc3)CC2)ccc2ccccc12 yielded a melting point of 240 °C. CN(C)c1cccc(-c2cnc3[nH]cc(C(=O)C(C)(C)C)c3n2)c1 showed a melting point of 223 to 228 °C. Molecule COC(=O)CCCNC(=O)N1CCN(c2cc3c(cc2F)c(=O)c(C(=O)O)cn3C2CC2)CC1 has a melting point of 198 to 200 °C. In the case of CC(C)c1cccc(C(C)C)c1N=c1cccc(-c2cccc3ccccc23)[nH]1, the melting point is reported as 142 to 144 °C. Work on O=C(Nc1ccc(CNc2nc(Cl)nc3cc(I)ccc23)cc1)c1ccc(Cl)nc1 yielded a melting point of 315 °C. In the case of CCCCN(c1nc(NCC(=O)OCC)nc(N(CCCC)C2CC(C)(C)NC(C)(C)C2)n1)C1CC(C)(C)NC(C)(C)C1, the melting point is reported as 40 °C. In the case of CC(C)c1cccc(COCCO)c1NC(=O)CC1c2ccccc2Oc2ccccc21, the melting point is reported as 153 to 154 °C. In the case of COCCc1nc2c(N)nc3ccccc3c2n1CCCNS(=O)(=O)c1cccc2c(N(C)C)cccc12, the melting point is reported as 210 to 215 °C. CC(C)(CO)NC(=O)c1nn(-c2ccc(Br)cc2)c2c1C1CCC2C1 (stereo not given) showed a melting point of 184 to 186 °C. COC(=O)C1Oc2ccc(Cl)cc2C(c2ccccc2)(c2ccccc2)O1 (stereo not given) showed a melting point of 172 °C. Work on O=C1OC(COc2ccc(Cl)cc2Cl)OC1c1ccccc1 (stereo not given) yielded a melting point of 105 to 107 °C. Work on CCN1c2ncc(CCc3ccncc3)cc2C(=O)Nc2c(C)ccnc21 yielded a melting point of 176 to 178 °C. Molecule C[C@H](O)[C@H]1C(=O)N2C(C(=O)OCc3ccc([N+](=O)[O-])cc3)=C(SCCNC(=O)COc3ccccc3)C[C@H]12 has a melting point of 115 to 118 °C. Work on COC(=O)C(CC(C)([N+](=O)[O-])[N+](=O)[O-])C(=O)OC yielded a melting point of 44 °C. CN(C)CC1CN(c2ccccc2)NC1=N (stereo not given) showed a melting point of 117 to 118 °C. COc1cc(CO)cc(OC)c1OCCO showed a melting point of 26 to 28 °C. COc1ccccc1P1(=O)c2ccccc2CN1c1ccccc1 (stereo not given) gave a melting point of 189 to 191 °C. For CC(C)(C)c1cc(Nc2ccc(C(=O)O)cc2)cc(C(C)(C)C)c1O, the melting point was 241 to 243 °C. For Cn1c(=O)c2c(ncn2CC(N)=NO)n(C)c1=O, the melting point was 224 °C. Molecule COC(=O)c1cc2c(OC(C)C)cccc2o1 has a melting point of 43 to 45 °C. Molecule Cc1cc2oc(=O)c(NC(=O)Nc3cccc(C(F)(F)F)c3)c(-c3ccccc3C)c2cc1Cl has a melting point of 203 to 205 °C. With CCOC(=O)c1c(O)c2cc(F)ccc2c(=O)n1CC(C)C the melting point was 91 to 92 °C. For O=C1CCCc2c1c(-c1ccccc1)nn2-c1ccccc1, the melting point was 162 °C. In the case of Cc1c(Br)c(=O)oc2nn(Cc3ccccc3Cl)c(C)c12, the melting point is reported as 206 to 208 °C. With COc1ccc(-c2ccccc2-c2c(Cl)nc3ncnn3c2Cl)c(Cl)c1 the melting point was 163 °C. Work on CC1C(=O)Oc2c(Oc3ccccc3Cl)cccc21 (stereo not given) yielded a melting point of 92 to 95 °C. Work on OCc1cnoc1-c1ccc(C(F)(F)F)cc1 yielded a melting point of 106 to 107 °C. For Cc1c(CNCC(C)(C)C)n(C)c2ccc(NC(=O)c3ccc(OC[C@@H]4CCCO4)cc3)cc12, the melting point was 165 to 166 °C. N#CSc1c(-c2ccccc2)[nH]c(Cl)c1C#N gave a melting point of 159 °C. O=Cc1cc(OCc2ccccc2)ccc1O gave a melting point of 94 to 96 °C. With CCCCc1nc2c(N)nc3cc(-c4ccsc4)ccc3c2n1CC(C)C the melting point was 229 to 230 °C. Molecule Cn1c(=O)c2c(-c3ccccc3)n(-c3cc([N+](=O)[O-])ccc3N)cc2n(C)c1=O has a melting point of over 300 °C. COc1ccc(S(N)(=O)=O)cc1C(C)=O showed a melting point of 203 to 206 °C. Work on CC1(C(=O)P(=O)(c2ccccc2)c2ccccc2)CCCCC1 yielded a melting point of 80 °C. In the case of COC(=O)C(Cc1ccccc1)NC(=S)Nc1nc(C)cs1 (racemic), the melting point is reported as 131 to 132 °C. For OC(Cn1cncn1)(c1ccc(F)cc1F)C(F)(F)C(F)(F)F (stereo not given), the melting point was 95 to 96 °C. In the case of C=C(C)C(=O)OCc1ccc(C#Cc2ccc(OC(=O)C(=C)C)cc2)cc1, the melting point is reported as 65 °C. O=C(O)CCC(=O)N[C@@H]1CN2C(=O)N(c3cc(Cl)nc(Cl)c3)C(=O)[C@@]2(Cc2ccc(OC(F)(F)F)cc2)C1 showed a melting point of 102 °C. In the case of O=C(Nc1ccc(Cl)cn1)c1cn2nc(N3CCN(C(=O)c4ccccc4C(F)(F)F)CC3)ccc2n1, the melting point is reported as 265 to 268 °C. With CC(C)Cn1c(CO)c(-c2ccccc2F)c2cc(OCc3ccccc3)ccc2c1=O the melting point was 191 to 192 °C. Molecule CCCN(CCCc1coc2c(OC)cccc12)C1COc2c(F)ccc(C(N)=O)c2C1 (stereo not given) has a melting point of 123 to 129 °C. With O=C(O)c1ccc(C(=O)N2CCN(C(=O)N3CCOCC3)CC2)cc1 the melting point was 203 to 205 °C. For Oc1ccc(CCCCn2cncn2)cc1, the melting point was 135 to 136 °C. For Cc1cc(Cl)c(S(C)(=O)=O)cc1C(=O)O, the melting point was 180 to 183 °C. For COc1ccc(Cn2c(=O)c3ccccc3n(CCCCl)c2=O)cc1, the melting point was 124 to 125 °C. For Cc1c(CNCCc2cc3cccc(F)c3n2C)ncn1S(=O)(=O)N(C)C, the melting point was 114 to 116 °C. Work on CCOC(=O)C1=Cc2cc(C=O)ccc2OC1C(F)(F)F (stereo not given) yielded a melting point of 84.3 to 86.2 °C. With O=C(O)c1cc2cc([N+](=O)[O-])ccc2[nH]c1=O the melting point was over 310 °C. With CCOC(=O)c1c(N)c(Cl)cn1C the melting point was 48 °C. O=Cc1c2c(cn1Cc1ccccc1)OCCO2 showed a melting point of 75 °C. CC1=C(C)C(=O)C(C(C)c2ccc(CC(=O)O)cc2)=C(C)C1=O (stereo not given) gave a melting point of 142 to 143 °C. CCCCn1nc(-c2ccccc2)c(CC(=O)O)c1-c1ccccc1 gave a melting point of 97 to 98 °C. CS(=O)(=O)Nc1cccc(CNC(=O)c2nc3ccccc3c(=O)[nH]2)c1 gave a melting point of 240 to 248 °C. C#CCOc1ccc(CCN(OS(C)(=O)=O)C(=O)Cc2ccc(Cl)cc2)cc1OC gave a melting point of 91 to 93 °C. O=C1CCCc2sc(-c3ccncc3)cc21 gave a melting point of 156 to 158 °C. With CC(=O)OCc1cc2c(C(O)CN(Cc3ccccc3)C(C)(C)C)ccc(OCc3ccccc3)c2[nH]1 (stereo not given) the melting point was 133 to 134 °C. NC(=O)CCCCC(=O)c1ccccc1 gave a melting point of 113 to 114 °C. Work on CC(=O)Nc1ccc(OCCCBr)cc1 yielded a melting point of 120 °C. With CCCc1c(OCCCOCCCOc2c(C(C)=O)ccc(OCC(=O)O)c2CCC)ccc(C(C)=O)c1O the melting point was 86 to 90 °C.
